# Assay results from article PMC5218480 (PLoS ONE, 2017).
# System: MV-4-11 cells
# Assay: Gene expression microarray analysis (Affymetrix PrimeView) and GSEA
# Assay type: cell-based, human
# Design: RFU PODN (11730768_x_at) / Fold change /veh PODN (11730768_x_at) / RFU LINC00158 (11744669_a_at) / Fold change /veh LINC00158 (11744669_a_at) / RFU DUSP10 (11751237_a_at) / Fold change /veh DUSP10 (11751237_a_at) / RFU ID3 (11757404_x_at) / Fold change /veh ID3 (11757404_x_at) / RFU PLEKHG5 (11737974_s_at) / Fold change /veh PLEKHG5 (11737974_s_at) / RFU LRRC4B (11730491_at) / Fold change /veh LRRC4B (11730491_at) / RFU GIMAP4 (11747438_a_at) / Fold change /veh GIMAP4 (11747438_a_at) / RFU KRT8 (11758183_x_at) / Fold change /veh KRT8 (11758183_x_at) / RFU CNN1 (11734310_a_at) / Fold change /veh CNN1 (11734310_a_at) / RFU VPS37D (11726825_at) / Fold change /veh VPS37D (11726825_at) / RFU C10orf10 (11716522_x_at) / Fold change /veh C10orf10 (11716522_x_at) / RFU KIR2DL2 /// KIR2DL4 /// KIR2DL5A /// KIR2DL5B /// KIR2DS1 /// KIR2DS2 /// KIR2DS3 /// KIR2DS4 /// KIR3DL3 /// KIR3DL3 /// KIR3DS1 (11738374_at) / Fold change /veh KIR2DL2 /// KIR2DL4 /// KIR2DL5A /// KIR2DL5B /// KIR2DS1 /// KIR2DS2 /// KIR2DS3 /// KIR2DS4 /// KIR3DL3 /// KIR3DL3 /// KIR3DS1 (11738374_at) / RFU C1QL1 (11718748_at) / Fold change /veh C1QL1 (11718748_at) / RFU TMPRSS4 (11747572_a_at) / Fold change /veh TMPRSS4 (11747572_a_at) / RFU HAMP (11756126_x_at) / Fold change /veh HAMP (11756126_x_at) / RFU RNFT2 (11725882_a_at) / Fold change /veh RNFT2 (11725882_a_at) / RFU NR4A2 (11747474_a_at) / Fold change /veh NR4A2 (11747474_a_at) / RFU ABCC12 (11746883_a_at) / Fold change /veh ABCC12 (11746883_a_at) / RFU TMEM136 (11760407_x_at) / Fold change /veh TMEM136 (11760407_x_at) / RFU CLDN22 /// WWC2 (11732394_at) / Fold change /veh CLDN22 /// WWC2 (11732394_at) / RFU HLA-DPB1 (11760878_x_at) / Fold change /veh HLA-DPB1 (11760878_x_at) / RFU SPINT1 (11716480_a_at) / Fold change /veh SPINT1 (11716480_a_at) / RFU GAP43 (11754022_s_at) / Fold change /veh GAP43 (11754022_s_at) / RFU A4GNT (11735810_at) / Fold change /veh A4GNT (11735810_at) / RFU PRB3 (11715151_x_at) / Fold change /veh PRB3 (11715151_x_at) / RFU TUBB4B (11761932_at) / Fold change /veh TUBB4B (11761932_at) / RFU CAPN14 (11732068_a_at) / Fold change /veh CAPN14 (11732068_a_at) / RFU TMCC2 (11721928_a_at) / Fold change /veh TMCC2 (11721928_a_at) / RFU IRGQ (11745062_a_at) / Fold change /veh IRGQ (11745062_a_at) / RFU FAM174B (11720279_a_at) / Fold change /veh FAM174B (11720279_a_at) / RFU TMPRSS4 (11748680_a_at) / Fold change /veh TMPRSS4 (11748680_a_at) / RFU FAM212B (11763350_a_at) / Fold change /veh FAM212B (11763350_a_at) / RFU PLEKHG5 (11743358_a_at) / Fold change /veh PLEKHG5 (11743358_a_at) / RFU ZSCAN30 (11745921_a_at) / Fold change /veh ZSCAN30 (11745921_a_at) / RFU CMKLR1 (11741424_a_at) / Fold change /veh CMKLR1 (11741424_a_at) / RFU LOC101060620 /// MAPK8IP1 (11723275_at) / Fold change /veh LOC101060620 /// MAPK8IP1 (11723275_at) / RFU SPTSSB (11747773_x_at) / Fold change /veh SPTSSB (11747773_x_at) / RFU PRSS12 (11739890_at) / Fold change /veh PRSS12 (11739890_at) / RFU BIN1 (11741810_x_at) / Fold change /veh BIN1 (11741810_x_at) / RFU WNT11 (11732464_a_at) / Fold change /veh WNT11 (11732464_a_at) / RFU C10orf10 (11716521_a_at) / Fold change /veh C10orf10 (11716521_a_at) / RFU C5orf56 (11738089_at) / Fold change /veh C5orf56 (11738089_at) / RFU CYB561 (11721691_x_at) / Fold change /veh CYB561 (11721691_x_at) / RFU ANKRD19P (11752326_a_at) / Fold change /veh ANKRD19P (11752326_a_at) / RFU OR2T12 /// OR2T33 /// OR2T8 (11738714_s_at) / Fold change /veh OR2T12 /// OR2T33 /// OR2T8 (11738714_s_at) / RFU VCAN (11748164_a_at) / Fold change /veh VCAN (11748164_a_at) / RFU JSRP1 (11732532_at) / Fold change /veh JSRP1 (11732532_at) / RFU KRTAP10-11 (11738290_x_at) / Fold change /veh KRTAP10-11 (11738290_x_at) / RFU MYO3A (11730013_a_at) / Fold change /veh MYO3A (11730013_a_at) / RFU EBF3 (11725865_a_at) / Fold change /veh EBF3 (11725865_a_at) / RFU CAMK2N1 (11719241_x_at) / Fold change /veh CAMK2N1 (11719241_x_at) / RFU C5orf56 (11738088_a_at) / Fold change /veh C5orf56 (11738088_a_at) / RFU OLFML3 (11715873_a_at) / Fold change /veh OLFML3 (11715873_a_at) / RFU LOC100653217 /// NTM (11731650_a_at) / Fold change /veh LOC100653217 /// NTM (11731650_a_at) / RFU MAPK11 (11762145_a_at) / Fold change /veh MAPK11 (11762145_a_at) / RFU FIZ1 (11724087_x_at) / Fold change /veh FIZ1 (11724087_x_at) / RFU OASL (11726364_x_at) / Fold change /veh OASL (11726364_x_at) / RFU SOX15 (11748057_x_at) / Fold change /veh SOX15 (11748057_x_at) / RFU CD79A (11719716_a_at) / Fold change /veh CD79A (11719716_a_at) / RFU HIST1H1D (11736915_at) / Fold change /veh HIST1H1D (11736915_at) / RFU CASKIN2 (11723855_a_at) / Fold change /veh CASKIN2 (11723855_a_at) / RFU LOC730098 (11760151_x_at) / Fold change /veh LOC730098 (11760151_x_at) / RFU OR4N2 (11742367_at) / Fold change /veh OR4N2 (11742367_at) / RFU PRRT2 (11749266_a_at) / Fold change /veh PRRT2 (11749266_a_at) / RFU SNX32 (11753110_a_at) / Fold change /veh SNX32 (11753110_a_at) / RFU CDHR5 (11726645_a_at) / Fold change /veh CDHR5 (11726645_a_at) / RFU RCAN1 (11760418_a_at) / Fold change /veh RCAN1 (11760418_a_at) / RFU FAM167A (11723789_a_at) / Fold change /veh FAM167A (11723789_a_at) / RFU FAM26E (11764081_at) / Fold change /veh FAM26E (11764081_at) / RFU ISYNA1 (11749810_s_at) / Fold change /veh ISYNA1 (11749810_s_at) / RFU ACY1 (11761880_at) / Fold change /veh ACY1 (11761880_at) / RFU 11764098_at / Fold change /veh 11764098_at / RFU SAMD14 (11745864_x_at) / Fold change /veh SAMD14 (11745864_x_at) / RFU NPB (11741838_a_at) / Fold change /veh NPB (11741838_a_at) / RFU TMPRSS6 (11731388_a_at) / Fold change /veh TMPRSS6 (11731388_a_at) / RFU KRTAP10-2 (11738614_at) / Fold change /veh KRTAP10-2 (11738614_at) / RFU ARHGAP8 /// PRR5-ARHGAP8 (11727945_x_at) / Fold change /veh ARHGAP8 /// PRR5-ARHGAP8 (11727945_x_at) / RFU KRTAP5-7 /// NADSYN1 (11734609_at) / Fold change /veh KRTAP5-7 /// NADSYN1 (11734609_at) / RFU RASL12 (11751679_a_at) / Fold change /veh RASL12 (11751679_a_at) / RFU CDKN2B (11736163_a_at) / Fold change /veh CDKN2B (11736163_a_at) / RFU PRF1 (11729649_at) / Fold change /veh PRF1 (11729649_at) / RFU, ZNF638 /// ZNF638-IT1 / Fold change vs veh, ZNF638 /// ZNF638-IT1 / RFU, PANK3 / Fold change vs veh, PANK3 / RFU, SH3YL1 / Fold change vs veh, SH3YL1 / RFU, ZEB2 / Fold change vs veh, ZEB2 / RFU, NRIP1 / Fold change vs veh, NRIP1 / RFU, PTTG1IP / Fold change vs veh, PTTG1IP / RFU, CAPN2 / Fold change vs veh, CAPN2 / RFU, MED14 / Fold change vs veh, MED14 / RFU, SNORA58 / Fold change vs veh, SNORA58 / RFU, C1orf63 / Fold change vs veh, C1orf63 / RFU, LRRFIP1 / Fold change vs veh, LRRFIP1 / RFU, NDUFAF7 / Fold change vs veh, NDUFAF7 / RFU, SLC12A2 / Fold change vs veh, SLC12A2 / RFU, IBTK / Fold change vs veh, IBTK / RFU, ESF1 / Fold change vs veh, ESF1 / Fold change vs veh, TMEM50B / RFU, TAOK1 / Fold change vs veh, TAOK1 / RFU, ACBD3 / Fold change vs veh, ACBD3 / RFU, TMA16 / Fold change vs veh, TMA16 / RFU, RWDD3 / Fold change vs veh, RWDD3 / RFU, BCAT1 / Fold change vs veh, BCAT1 / RFU, EDEM3 / Fold change vs veh, EDEM3 / RFU, TMEM33 / Fold change vs veh, TMEM33 / RFU, WDR75 / Fold change vs veh, WDR75 / RFU, AHCTF1 / Fold change vs veh, AHCTF1 / RFU, TFRC / Fold change vs veh, TFRC / RFU, ZDHHC17 / Fold change vs veh, ZDHHC17 / RFU, NOM1 / Fold change vs veh, NOM1 / RFU, ARL8B / Fold change vs veh, ARL8B / RFU, ZBTB11 / Fold change vs veh, ZBTB11 / RFU, TAMM41 / Fold change vs veh, TAMM41 / RFU, KIAA1704 /// LOC100996395 / Fold change vs veh, KIAA1704 /// LOC100996395 / RFU, ING1 / Fold change vs veh, ING1 / RFU, TRMT61B / Fold change vs veh, TRMT61B / RFU, FUBP3 / Fold change vs veh, FUBP3 / RFU, TP53 / Fold change vs veh, TP53 / RFU, TNKS2 / Fold change vs veh, TNKS2 / RFU, ZFP14 / Fold change vs veh, ZFP14 / RFU, ACTR2 / Fold change vs veh, ACTR2 / RFU, PPP3R1 / Fold change vs veh, PPP3R1 / RFU, PIK3R1 / Fold change vs veh, PIK3R1 / RFU, HNRNPA1 / Fold change vs veh, HNRNPA1 / RFU, RNF170 / Fold change vs veh, RNF170 / RFU, ZNF28 / Fold change vs veh, ZNF28 / RFU, RNGTT / Fold change vs veh, RNGTT / RFU, OGT / Fold change vs veh, OGT / RFU, BRD1 / Fold change vs veh, BRD1 / RFU, MARS / Fold change vs veh, MARS / RFU, ZNF655 / Fold change vs veh, ZNF655 / RFU, FAHD1 / Fold change vs veh, FAHD1 / RFU, BDP1 / Fold change vs veh, BDP1 / RFU, LRRCC1 / Fold change vs veh, LRRCC1 / RFU, ARID1A / Fold change vs veh, ARID1A / RFU, ZNF146 / Fold change vs veh, ZNF146 / RFU, ZNF330 / Fold change vs veh, ZNF330 / RFU, GPN3 / Fold change vs veh, GPN3 / RFU, C9orf123 / Fold change vs veh, C9orf123 / RFU, N4BP2L2 / Fold change vs veh, N4BP2L2 / RFU, ARFIP1 / Fold change vs veh, ARFIP1 / RFU, FAM179B / Fold change vs veh, FAM179B / RFU, BCL10 / Fold change vs veh, BCL10 / RFU, UHRF1BP1L / Fold change vs veh, UHRF1BP1L / RFU, BET1 / Fold change vs veh, BET1 / RFU, CNOT2 / Fold change vs veh, CNOT2 / RFU, ZNF268 / Fold change vs veh, ZNF268 / Fold change vs veh, ZNF507 / RFU, DGCR2 / Fold change vs veh, DGCR2 / RFU, WDSUB1 / Fold change vs veh, WDSUB1 / Fold change vs veh, HSP90B1 /// MIR3652 / RFU, ADSS / Fold change vs veh, ADSS / RFU, GK / Fold change vs veh, GK / RFU, ZNF148 / Fold change vs veh, ZNF148 / RFU, TAF9 / Fold change vs veh, TAF9 / RFU, SLC1A5 / Fold change vs veh, SLC1A5 / RFU, SLMO2 / Fold change vs veh, SLMO2 / RFU, ABCC4 / Fold change vs veh, ABCC4 / RFU, LOC101060439 /// RAP1B / Fold change vs veh, LOC101060439 /// RAP1B / RFU, RFX7 / Fold change vs veh, RFX7 / RFU, GTPBP10 / Fold change vs veh, GTPBP10 / RFU, CNEP1R1 / Fold change vs veh, CNEP1R1 / RFU, BIVM-ERCC5 /// ERCC5 / Fold change vs veh, BIVM-ERCC5 /// ERCC5 / RFU, ILF3 / Fold change vs veh, ILF3 / RFU 11762660_at / Fold change /veh 11762660_at / RFU VCAN (11757783_s_at) / Fold change /veh VCAN (11757783_s_at) / RFU DDX43 (11728927_at) / Fold change /veh DDX43 (11728927_at) / RFU KRT8 (11758188_x_at) / Fold change /veh KRT8 (11758188_x_at) / RFU NKD1 (11759106_at) / Fold change /veh NKD1 (11759106_at) / RFU SRD5A1 (11742802_a_at) / Fold change /veh SRD5A1 (11742802_a_at) / RFU TPSAB1 /// TPSB2 (11721975_s_at) / Fold change /veh TPSAB1 /// TPSB2 (11721975_s_at) / RFU GSTM3 (11746129_a_at) / Fold change /veh GSTM3 (11746129_a_at) / RFU IL23R (11737362_x_at) / Fold change /veh IL23R (11737362_x_at) / RFU TMEM51 (11727254_a_at) / Fold change /veh TMEM51 (11727254_a_at) / RFU PIWIL2 (11732686_x_at) / Fold change /veh PIWIL2 (11732686_x_at) / RFU ORM1 (11744905_x_at) / Fold change /veh ORM1 (11744905_x_at) / RFU CCDC152 (11743942_at) / Fold change /veh CCDC152 (11743942_at) / RFU ECM1 (11717891_a_at) / Fold change /veh ECM1 (11717891_a_at) / RFU IL23R (11748794_a_at) / Fold change /veh IL23R (11748794_a_at) / RFU TNFAIP8L3 (11732012_x_at) / Fold change /veh TNFAIP8L3 (11732012_x_at) / RFU MBOAT4 (11741988_at) / Fold change /veh MBOAT4 (11741988_at) / RFU 11764193_at / Fold change /veh 11764193_at / RFU TMEM53 (11763286_at) / Fold change /veh TMEM53 (11763286_at) / RFU MAGEB2 (11727129_at) / Fold change /veh MAGEB2 (11727129_at) / RFU TMEM200A (11744735_a_at) / Fold change /veh TMEM200A (11744735_a_at) / RFU CCDC152 (11751479_a_at) / Fold change /veh CCDC152 (11751479_a_at) / RFU FAM211A (11726209_a_at) / Fold change /veh FAM211A (11726209_a_at) / RFU RGS16 (11746705_a_at) / Fold change /veh RGS16 (11746705_a_at) / RFU VCAN (11755009_s_at) / Fold change /veh VCAN (11755009_s_at) / RFU RHOB (11743442_s_at) / Fold change /veh RHOB (11743442_s_at) / RFU RGS16 (11720943_a_at) / Fold change /veh RGS16 (11720943_a_at) / RFU RGS16 (11720944_at) / Fold change /veh RGS16 (11720944_at) / RFU, VPS4B / Fold change vs veh, VPS4B / RFU, CREB1 / Fold change vs veh, CREB1 / RFU, DNAJC13 / Fold change vs veh, DNAJC13 / RFU, GNAQ / Fold change vs veh, GNAQ / RFU, CDK5R1 / Fold change vs veh, CDK5R1 / RFU, ZRANB3 / Fold change vs veh, ZRANB3 / RFU, CUL4A / Fold change vs veh, CUL4A / RFU, CCNY / Fold change vs veh, CCNY / RFU, UFL1 / Fold change vs veh, UFL1 / RFU, COG3 / Fold change vs veh, COG3 / RFU, DIAPH2 / Fold change vs veh, DIAPH2 / RFU, SKA2 / Fold change vs veh, SKA2 / RFU, AFF3 / Fold change vs veh, AFF3 / RFU, LMF1 / Fold change vs veh, LMF1 / RFU, IPO11 / Fold change vs veh, IPO11 / RFU, DFFB / Fold change vs veh, DFFB / RFU, FOXP1 / Fold change vs veh, FOXP1 / RFU, CARD8 / Fold change vs veh, CARD8 / RFU, STRN3 / Fold change vs veh, STRN3 / RFU, ADK / Fold change vs veh, ADK / RFU, RASSF2 / Fold change vs veh, RASSF2 / RFU, WIPF1 / Fold change vs veh, WIPF1 / RFU, LARP1B / Fold change vs veh, LARP1B / RFU, RASA1 / Fold change vs veh, RASA1 / RFU, RB1 / Fold change vs veh, RB1 / RFU, PPFIA1 / Fold change vs veh, PPFIA1 / RFU, MAT2A / Fold change vs veh, MAT2A / RFU, CCT5 / Fold change vs veh, CCT5 / RFU, WDR92 / Fold change vs veh, WDR92 / RFU, CUX1 / Fold change vs veh, CUX1 / RFU, TTC7A / Fold change vs veh, TTC7A / RFU, TMEM135 / Fold change vs veh, TMEM135 / RFU, DEPTOR / Fold change vs veh, DEPTOR / RFU, CPM / Fold change vs veh, CPM / RFU, DNAJB6 / Fold change vs veh, DNAJB6 / RFU, CACNA2D3 / Fold change vs veh, CACNA2D3 / RFU, DTX4 / Fold change vs veh, DTX4 / RFU, TFCP2 / Fold change vs veh, TFCP2 / RFU, GMCL1 /// GMCL1P1 / Fold change vs veh, GMCL1 /// GMCL1P1 / RFU, AEBP2 / Fold change vs veh, AEBP2 / RFU, SNHG1 /// SNORD22 /// SNORD25 /// SNORD26 /// SNORD27 /// SNORD28 /// SNORD29 /// SNORD31 / Fold change vs veh, SNHG1 /// SNORD22 /// SNORD25 /// SNORD26 /// SNORD27 /// SNORD28 /// SNORD29 /// SNORD31 / Fold change (Aza/veh), C12orf56 (ProbeSet 11735607_a_at) / Fold change (ACY-1035/veh), C12orf56 (ProbeSet 11735607_a_at) / Fold change (Aza/veh), FGFR1OP (ProbeSet 11751329_s_at) / Fold change (ACY-1035/veh), FGFR1OP (ProbeSet 11751329_s_at) / Fold change (Aza/veh), VPS36 (ProbeSet 11739960_a_at) / Fold change (ACY-1035/veh), VPS36 (ProbeSet 11739960_a_at) / RFU SYPL1 (11715823_x_at) / Fold change /veh SYPL1 (11715823_x_at) / RFU IGFBP7 (11715501_s_at) / Fold change /veh IGFBP7 (11715501_s_at) / RFU REEP3 (11722064_at) / Fold change /veh REEP3 (11722064_at) / RFU IGLL1 (11728026_x_at) / Fold change /veh IGLL1 (11728026_x_at): dose or concentration left out as unconfirmed
# Settings: ProbeSet 11716931_at; LIST B
compound,measurement,value
Nc1ccc(-c2cccs2)cc1NC(=O)c1ccc2c(c1)cc(C1CC1)n2CCN1CCOCC1 [ACY-1035],"Fold change vs veh, DGCR2",1.13
